From patent publication US20150133297A1, “NEW ANTIFUNGAL COMPOSITIONS” (DSM IP ASSETS B.V., priority 2012, published 2015)
Values joined by “and” are separate entries in the source; they are usually repeats but may differ in a detail not shown here. Equal entries are not always repeated.

How the values were obtained:
Penicillium italicum = assay: Treatment of oranges (Examples 6-9): wounded, inoculated, wound treated with antifungal composition; assay type: in vivo; conditions: for Observed antifungal activity O (%): oranges, 20° C.
Protocol: During incubation, mould growth on the strawberries was assessed in a twofold manner: (i) the number of moulded strawberries per total of 12 strawberries was counted; and (ii) the antifungal activity (in %) of the individual and combined active ingredients was determined by calculating the reduction in mould growth observed on the strawberries treated with the antifungal composition in comparison to the mould growth on the strawberries treated with the control composition. The expected antifungal activity (E in %) of the combined antifungal composition comprising both active ingredients was calculated according to the Colby equation (Colby, 1967): […]
Eight fresh, organic oranges were used per treatment. Each orange was soaked in a 180 ppm hypochlorite solution for 10 minutes, then rinsed thoroughly with fresh tap water and dried. The peel of each disinfected orange was wounded once using a cork borer according to the method described by de Lapeyre de Bellaire and Dubois (1987). Subsequently, each wound was inoculated with 10 μl of a Penicillium italicum suspension containing 5×10^5 of spores/ml. After incubation for 3 hours at 20° C., each wound and the orange peel area of 1 cm around the wound was treated with in total 150 μl of a freshly prepared aqueous antifungal composition comprising either 500 ppm natamycin (DSM Food Specialties, Delft, The Netherlands), 500 ppm fenpropidin or both. Each antifungal composition also comprised 3.2% (w/w) beeswax, 0.8% (w/w) glycerol, 0.7% (w/w) polyoxyethylene sorbitan monostearate (Tween 60), 0.1% (w/w) polyoxyethylene sorbitan monooleate (Tween 80), 0.05% (w/w) methylhydroxyethyl-cellulose (MHEC), 0.03% (w/w) anti-foaming agent, 0.02% (w/w) xanthan gum, 0.02% (w/w) citric acid, 0.01% (w/w) lactic acid and 0.01% potassium sorbate. A composition without natamycin or fenpropidin was used as control. […] The treated oranges were incubated in a closed box in the dark at 20° C. and assessed on mould growth during a 28-day incubation period. The antifungal activity (in %) of the individual and combined active ingredients was determined by calculating the reduction in mould growth observed on the oranges treated with the antifungal composition in comparison to the mould growth on the oranges treated with the control composition according to the Colby method (Colby, 1967) as described in Example 5.
(§1) The experiment was conducted as described in Example 6, except for the fact that each wounded and inoculated orange was treated with 150 μl of a freshly prepared aqueous antifungal composition comprising either 250 ppm natamycin (DSM Food Specialties, Delft, The Netherlands), 250 ppm fenpropidin or both. During the 26-day incubation period, the treated oranges were assessed on mould growth according to the two methods described in Example 5.
as §1, with “either 500” for “either 250”, “Netherlands), 400” for “Netherlands), 250”, “ppm spiroxamine” for “ppm fenpropidin”
as §1, with “Netherlands), 200” for “Netherlands), 250”, “ppm spiroxamine” for “ppm fenpropidin”

Botrytis cinerea = assay: Treatment of strawberries (Example 5): wounded, inoculated, dipped in antifungal composition; assay type: in vivo; conditions: 500 ppm natamycin, 600 ppm fenpropidin or both
Protocol: Twelve fresh, organic strawberries were used per treatment. Each strawberry was wounded with a 0.5 mm long cut and each wound was inoculated with 10 μl of a Botrytis cinerea suspension containing 1×10^5 of spores/ml. […] A composition without natamycin or fenpropidin was used as control. […] The treated strawberries were incubated in a closed box in the dark at 20° C. for 9 days. During incubation, mould growth on the strawberries was assessed in a twofold manner: […] The expected antifungal activity (E in %) of the combined antifungal composition comprising both active ingredients was calculated according to the Colby equation (Colby, 1967): […] wherein X and Y are the observed antifungal activities (in %) of the individual active ingredients X and Y, respectively.

[1] = Day 11, 20° C., 250 ppm natamycin, 200 ppm spiroxamine or both
[2] = Day 12, 20° C., 250 ppm natamycin, 200 ppm spiroxamine or both
[3] = Day 13, 20° C., 250 ppm natamycin, 200 ppm spiroxamine or both
[4] = Day 14-15, 20° C., 250 ppm natamycin, 200 ppm spiroxamine or both
[5] = Day 14-16, 20° C., 500 ppm natamycin, 400 ppm spiroxamine or both
[6] = Day 16, 20° C., 250 ppm natamycin, 200 ppm spiroxamine or both
[7] = Day 18, 20° C., 250 ppm natamycin, 200 ppm spiroxamine or both
[8] = Day 18, 20° C., 500 ppm natamycin, 400 ppm spiroxamine or both
[9] = Day 19-21, 20° C., 500 ppm natamycin, 400 ppm spiroxamine or both
[10] = Day 19-25, 20° C., 250 ppm natamycin, 200 ppm spiroxamine or both
[11] = Day 22-23, 20° C., 500 ppm natamycin, 400 ppm spiroxamine or both
[12] = Day 26, 20° C., 250 ppm natamycin, 200 ppm spiroxamine or both
[13] = days 19 through 26, 250 ppm natamycin, 200 ppm spiroxamine or both
[14] = day 11, 250 ppm natamycin, 200 ppm spiroxamine or both
[15] = day 12, 250 ppm natamycin, 200 ppm spiroxamine or both
[16] = day 13, 250 ppm natamycin, 200 ppm spiroxamine or both
[17] = day 14, 250 ppm natamycin, 200 ppm spiroxamine or both
[18] = day 15, 250 ppm natamycin, 200 ppm spiroxamine or both
[19] = day 16, 250 ppm natamycin, 200 ppm spiroxamine or both
[20] = day 18, 250 ppm natamycin, 200 ppm spiroxamine or both
[21] = day 18, 500 ppm natamycin, 400 ppm spiroxamine or both
[22] = day 19, 250 ppm natamycin, 200 ppm spiroxamine or both
[23] = day 19, 500 ppm natamycin, 400 ppm spiroxamine or both
[24] = day 20, 250 ppm natamycin, 200 ppm spiroxamine or both
[25] = day 20, 500 ppm natamycin, 400 ppm spiroxamine or both
[26] = day 21, 250 ppm natamycin, 200 ppm spiroxamine or both
[27] = day 21, 500 ppm natamycin, 400 ppm spiroxamine or both
[28] = day 22, 250 ppm natamycin, 200 ppm spiroxamine or both
[29] = day 22, 500 ppm natamycin, 400 ppm spiroxamine or both
[30] = day 23, 250 ppm natamycin, 200 ppm spiroxamine or both
[31] = day 23, 500 ppm natamycin, 400 ppm spiroxamine or both
[32] = day 25-26, 500 ppm natamycin, 400 ppm spiroxamine or both
[33] = day 25, 250 ppm natamycin, 200 ppm spiroxamine or both
[34] = day 26, 250 ppm natamycin, 200 ppm spiroxamine or both

## CCCN(CC)CC1COC2(CCC(C(C)(C)C)CC2)O1 (stereo not shown) [Spiroxamine, spiroxamine]
Penicillium italicum; [1]
  Number of moulded oranges/total number of 8 oranges: 7 and 7/8
Penicillium italicum; [2]
  Number of moulded oranges/total number of 8 oranges: 8 and 8/8
Penicillium italicum; [3]
  Number of moulded oranges/total number of 8 oranges: 8/8
Penicillium italicum; [4]
  Number of moulded oranges/total number of 8 oranges: 8/8
Penicillium italicum; [5]
  Number of moulded oranges/total number of 8 oranges: 8/8
Penicillium italicum; [6]
  Number of moulded oranges/total number of 8 oranges: 8 and 8/8
Penicillium italicum; [7]
  Number of moulded oranges/total number of 8 oranges: 8 and 8/8
Penicillium italicum; [8]
  Number of moulded oranges/total number of 8 oranges: 8/8
Penicillium italicum; [9]
  Number of moulded oranges/total number of 8 oranges: 8 and 8/8
Penicillium italicum; [10]
  Number of moulded oranges/total number of 8 oranges: 8/8
Penicillium italicum; [11]
  Number of moulded oranges/total number of 8 oranges: 8 and 8/8
Penicillium italicum; [12]
  Number of moulded oranges/total number of 8 oranges: 8/8
Penicillium italicum; after 14 through 16 days and 18 days of incubation, 500 ppm natamycin, 400 ppm spiroxamine
  moulded oranges of the 8 oranges: 8
Penicillium italicum; days 13 through 15, 250 ppm natamycin, 200 ppm spiroxamine or both
  moulded oranges of the 8 oranges: 8
Penicillium italicum; [13]
  moulded oranges of the 8 oranges: 8
Penicillium italicum; [14]
  Observed antifungal activity O (%): 75%
Penicillium italicum; [15]
  Observed antifungal activity O (%): 64%
Penicillium italicum; [16]
  Observed antifungal activity O (%): 48%
Penicillium italicum; [17]
  Observed antifungal activity O (%): 39%
Penicillium italicum; [18]
  Observed antifungal activity O (%): 31%
Penicillium italicum; [19]
  Observed antifungal activity O (%): 20%
Penicillium italicum; [20]
  Observed antifungal activity O (%): 3%
Penicillium italicum; [21]
  Observed antifungal activity O (%): 22%
Penicillium italicum; [22]
  Observed antifungal activity O (%): 0%
Penicillium italicum; [23]
  Observed antifungal activity O (%): 8%
Penicillium italicum; [24]
  Observed antifungal activity O (%): 0%
Penicillium italicum; [25]
  Observed antifungal activity O (%): 0%
Penicillium italicum; [26]
  Observed antifungal activity O (%): 0%
Penicillium italicum; [27]
  Observed antifungal activity O (%): 0%
Penicillium italicum; [28]
  Observed antifungal activity O (%): 0%
Penicillium italicum; [29]
  Observed antifungal activity O (%): 0%
Penicillium italicum; [30]
  Observed antifungal activity O (%): 0%
Penicillium italicum; [31]
  Observed antifungal activity O (%): 0%
Penicillium italicum; [32]
  Observed antifungal activity O (%): 0%
Penicillium italicum; [33]
  Observed antifungal activity O (%): 0%
Penicillium italicum; [34]
  Observed antifungal activity O (%): 0%

## C[C@@H]1C/C=C/C=C/C=C/C=C/[C@H](O[C@@H]2O[C@H](C)[C@@H](O)[C@H](N)[C@@H]2O)C[C@@H]2O[C@](O)(C[C@@H](O)C[C@H]3O[C@@H]3/C=C/C(=O)O1)C[C@H](O)[C@H]2C(=O)O [Natamycin, natamycin]
Botrytis cinerea; Day 5, 20° C.
  Number of moulded strawberries/total number of 12 strawberries: 11
Botrytis cinerea; Day 6, 20° C.
  Number of moulded strawberries/total number of 12 strawberries: 12
Penicillium italicum; [1]
  Number of moulded oranges/total number of 8 oranges: 5 and 5/8
Penicillium italicum; [2]
  Number of moulded oranges/total number of 8 oranges: 5 and 5/8
Penicillium italicum; [3]
  Number of moulded oranges/total number of 8 oranges: 5/8
Penicillium italicum; [4]
  Number of moulded oranges/total number of 8 oranges: 6/8
Penicillium italicum; [5]
  Number of moulded oranges/total number of 8 oranges: 5/8
Penicillium italicum; [6]
  Number of moulded oranges/total number of 8 oranges: 6 and 6/8
Penicillium italicum; [7]
  Number of moulded oranges/total number of 8 oranges: 6 and 6/8
Penicillium italicum; Day 18, 20° C., 250 ppm natamycin, 250 ppm fenpropidin or both
  Number of moulded oranges/total number of 8 oranges: 6/8
Penicillium italicum; [8]
  Number of moulded oranges/total number of 8 oranges: 6/8
Penicillium italicum; Day 19, 20° C., 250 ppm natamycin, 250 ppm fenpropidin or both
  Number of moulded oranges/total number of 8 oranges: 7/8
Penicillium italicum; [9]
  Number of moulded oranges/total number of 8 oranges: 6 and 6/8
Penicillium italicum; [10]
  Number of moulded oranges/total number of 8 oranges: 7/8
Penicillium italicum; Day 20, 20° C., 250 ppm natamycin, 250 ppm fenpropidin or both
  Number of moulded oranges/total number of 8 oranges: 7/8
Penicillium italicum; Day 21-22, 20° C., 250 ppm natamycin, 250 ppm fenpropidin or both
  Number of moulded oranges/total number of 8 oranges: 7 and 7/8
Penicillium italicum; [11]
  Number of moulded oranges/total number of 8 oranges: 6 and 6/8
Penicillium italicum; Day 23-26, 20° C., 250 ppm natamycin, 250 ppm fenpropidin or both
  Number of moulded oranges/total number of 8 oranges: 7 and 7/8
Penicillium italicum; [12]
  Number of moulded oranges/total number of 8 oranges: 7/8
Penicillium italicum; [13]
  moulded oranges of the 8 oranges: 7
Penicillium italicum; [14]
  Observed antifungal activity O (%): 80%
Penicillium italicum; [15]
  Observed antifungal activity O (%): 73%
Penicillium italicum; [16]
  Observed antifungal activity O (%): 63%
Penicillium italicum; [17]
  Observed antifungal activity O (%): 50%
Penicillium italicum; [18]
  Observed antifungal activity O (%): 46%
Penicillium italicum; [19]
  Observed antifungal activity O (%): 43%
Penicillium italicum; [20]
  Observed antifungal activity O (%): 41%
Penicillium italicum; day 18, 250 ppm natamycin, 250 ppm fenpropidin or both
  Observed antifungal activity O (%): 41%
Penicillium italicum; [21]
  Observed antifungal activity O (%): 32%
Penicillium italicum; [22]
  Observed antifungal activity O (%): 36%
Penicillium italicum; day 19, 250 ppm natamycin, 250 ppm fenpropidin or both
  Observed antifungal activity O (%): 36%
Penicillium italicum; [23]
  Observed antifungal activity O (%): 29%
Penicillium italicum; [24]
  Observed antifungal activity O (%): 34%
Penicillium italicum; day 20, 250 ppm natamycin, 250 ppm fenpropidin or both
  Observed antifungal activity O (%): 34%
Penicillium italicum; [25]
  Observed antifungal activity O (%): 20%
Penicillium italicum; [26]
  Observed antifungal activity O (%): 32%
Penicillium italicum; day 21, 250 ppm natamycin, 250 ppm fenpropidin or both
  Observed antifungal activity O (%): 32%
Penicillium italicum; [27]
  Observed antifungal activity O (%): 16%
Penicillium italicum; [28]
  Observed antifungal activity O (%): 29%
Penicillium italicum; day 22, 250 ppm natamycin, 250 ppm fenpropidin or both
  Observed antifungal activity O (%): 29%
Penicillium italicum; [29]
  Observed antifungal activity O (%): 14%
Penicillium italicum; day 22, 500 ppm natamycin, 500 ppm fenpropidin or both
  Observed antifungal activity O (%): 14%
Penicillium italicum; [30]
  Observed antifungal activity O (%): 25%
Penicillium italicum; day 23, 250 ppm natamycin, 250 ppm fenpropidin or both
  Observed antifungal activity O (%): 25%
Penicillium italicum; [31]
  Observed antifungal activity O (%): 14%
Penicillium italicum; day 23, 500 ppm natamycin, 500 ppm fenpropidin or both
  Observed antifungal activity O (%): 14%
Penicillium italicum; [32]
  Observed antifungal activity O (%): 14%
Penicillium italicum; [33]
  Observed antifungal activity O (%): 19%
Penicillium italicum; day 25, 250 ppm natamycin, 250 ppm fenpropidin or both
  Observed antifungal activity O (%): 19%
Penicillium italicum; day 25, 500 ppm natamycin, 500 ppm fenpropidin or both
  Observed antifungal activity O (%): 14%
Penicillium italicum; [34]
  Observed antifungal activity O (%): 17%
Penicillium italicum; day 26, 250 ppm natamycin, 250 ppm fenpropidin or both
  Observed antifungal activity O (%): 17%
Penicillium italicum; day 26, 500 ppm natamycin, 500 ppm fenpropidin or both
  Observed antifungal activity O (%): 14%
Penicillium italicum; day 27, 500 ppm natamycin, 500 ppm fenpropidin or both
  Observed antifungal activity O (%): 14%
Penicillium italicum; day 28, 500 ppm natamycin, 500 ppm fenpropidin or both
  Observed antifungal activity O (%): 14%
